Laboratory results as given in patent US20100298141A1, “SUBSTITUTED PYRIDINE N-OXIDE HERBICIDES” (E. I. DU PONT DE NEMOURS AND COMPANY, priority 2007, published 2010).

Assays:
Russian thistle = experiment: Test C pre-/postemergence test; format: in vivo, Salsola kali; settings: Preemergence
Text: Seeds of plant species selected from blackgrass (Alopecurus myosuroides), downy brome (Bromus tectorum), green foxtail (Setaria viridis), Italian ryegrass (Lolium multiflorum), wheat (Triticum aestivum), wild oat (Avena fatua), catchweed bedstraw (Galium aparine), Russian thistle (Salsola kali), […] (Cynodon dactylon), Surinam grass (Brachiaria decumbens), cocklebur (Xanthium strumarium), corn (Zea mays), crabgrass (Digitaria sanguinalis), woolly cupgrass (Eriochloa villosa), giant foxtail (Setaria faberii), Goosegrass (Eleusin indica), johnsongrass (Sorghum halepense), kochia (Kochia scoparia), lambsquarters (Chenopodium album), morningglory (Ipomoea coccinea), eastern black nightshade (Solanum ptycanthum), yellow nutsedge (Cyperus esculentus), pigweed (Amaranthus retroflexus), common ragweed (Ambrosia elation), soybean (Glycine max), common (oilseed) sunflower (Helianthus annuus), and velvetleaf (Abutilon theophrasti) were planted and treated preemergence with test chemicals formulated in a non-phytotoxic solvent mixture which included a surfactant. At the same time, plants selected from these crop and weed species and also winter barley (Hordeum vulgare), canarygrass (Phalaris minor), and chickweed (Stellaria media) were treated with postemergence applications of some of the test chemicals formulated in the same manner. Plants ranged in height from 2 to 18 cm (1- to 4-leaf stage) for postemergence treatments. […] At time of treatment, test pots were flooded to 3 cm above the soil surface, treated by application of test compounds directly to the paddy water, and then maintained at that water depth for the duration of the test. […] A dash (-) response means no test result.

green foxtail = experiment: Test F preemergence test; format: in vivo, Setaria viridis; settings: scale 0 to 100
Method in brief: (§1)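 Test chemicals in a non-phytotoxic solvent mixture containing a surfactant were applied preemergence to sown seeds or postemergence to sugarcane plants. Treated plants and controls were held in a greenhouse for 14 to 21 days, then visually evaluated against controls.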

mustard = experiment: Test F preemergence test; format: in vivo, Brassica nigra; settings: scale 0 to 100
Method in brief: as §1

guineagrass = experiment: Test F preemergence test; format: in vivo, Panicum maximum; settings: scale 0 to 100
Method in brief: as §1

dallisgrass = experiment: Test F preemergence test; format: in vivo, Paspalum dilatatum; settings: scale 0 to 100
Method in brief: as §1

barnyardgrass = experiment: Test F preemergence test; format: in vivo, Echinochloa crus-galli; settings: scale 0 to 100
Method in brief: as §1

southern sandbur = experiment: Test F preemergence test; format: in vivo, Cenchrus echinatus; settings: scale 0 to 100
Method in brief: as §1

prickly sida = experiment: Test F preemergence test; format: in vivo, Sida spinosa; settings: scale 0 to 100
Method in brief: as §1

common purslane = experiment: Test F preemergence test; format: in vivo, Portulaca oleracea; settings: scale 0 to 100
Method in brief: as §1

common groundsel = experiment: Test F preemergence test; format: in vivo, Senecio vulgaris; settings: scale 0 to 100
Method in brief: as §1

itchgrass = experiment: Test F preemergence test; format: in vivo, Rottboellia cochinchinensis; settings: scale 0 to 100
Method in brief: as §1

quackgrass = experiment: Test F preemergence test; format: in vivo, Elytrigia repens; settings: scale 0 to 100
Method in brief: as §1

field bindweed = experiment: Test F preemergence test; format: in vivo, Convolvulus arvensis; settings: scale 0 to 100
Method in brief: as §1

common mallow = experiment: Test F preemergence test; format: in vivo, Malva sylvestris; settings: scale 0 to 100
Method in brief: as §1

SMILES: Cc1cc[n+]([O-])c([S+]([O-])Cc2c(C(F)(F)F)nn(C)c2Cl)c1 (racemic) [Compound 20]
- Russian Thistle plant response rating (Russian thistle; 62 g ai/ha, scale 0 to 100): 100
- Plant response rating, Russian Thistle (Russian thistle; 31 g ai/ha, scale 0 to 100 (0 no effect, 100 complete control)): 100
- Plant response rating, Foxtail, Green (green foxtail; 8 g ai/ha, preemergence): 0
- Foxtail, Green plant response rating (green foxtail; 62 g ai/ha, Preemergence): 75
- Plant response rating, Foxtail, Green (green foxtail; Preemergence, 16 g ai/ha): 10
- Plant response rating, Foxtail, Green (green foxtail; Preemergence, 31 g ai/ha): 40
- Plant response rating, Black Mustard (mustard; 8 g ai/ha, preemergence): 0
- Black Mustard plant response rating (mustard; 62 g ai/ha, Preemergence): 90
- Plant response rating, Black Mustard (mustard; Preemergence, 16 g ai/ha): 50
- Plant response rating, Black Mustard (mustard; Preemergence, 31 g ai/ha): 60
- Plant response rating, Guineagrass (guineagrass; 8 g ai/ha, preemergence): 0
- Guineagrass plant response rating (guineagrass; 62 g ai/ha, Preemergence): 95
- Plant response rating, Guineagrass (guineagrass; Preemergence, 16 g ai/ha): 0
- Plant response rating, Guineagrass (guineagrass; Preemergence, 31 g ai/ha): 90
- Plant response rating, Dallisgrass (dallisgrass; 8 g ai/ha, preemergence): 0
- Dallisgrass plant response rating (dallisgrass; 62 g ai/ha, Preemergence): 75
- Plant response rating, Dallisgrass (dallisgrass; Preemergence, 16 g ai/ha): 0
- Plant response rating, Dallisgrass (dallisgrass; Preemergence, 31 g ai/ha): 20
- Plant response rating, Barnyardgrass (barnyardgrass; 8 g ai/ha, preemergence): 0
- Barnyardgrass plant response rating (barnyardgrass; 62 g ai/ha, Preemergence): 90
- Plant response rating, Barnyardgrass (barnyardgrass; Preemergence, 16 g ai/ha): 40
- Plant response rating, Barnyardgrass (barnyardgrass; Preemergence, 31 g ai/ha): 80
- Plant response rating, Sandbur (southern sandbur; 8 g ai/ha, preemergence): 0
- Plant response rating, Sandbur (southern sandbur; 16 g ai/ha, preemergence): 0
- Sandbur plant response rating (southern sandbur; 62 g ai/ha, Preemergence): 75
- Plant response rating, Sandbur (southern sandbur; Preemergence, 31 g ai/ha): 60
- Plant response rating, Prickly Sida (prickly sida; 8 g ai/ha, preemergence): 0
- Prickly Sida plant response rating (prickly sida; 62 g ai/ha, Preemergence): 60
- Plant response rating, Prickly Sida (prickly sida; Preemergence, 16 g ai/ha): 0
- Plant response rating, Prickly Sida (prickly sida; Preemergence, 31 g ai/ha): 20
- Plant response rating, Purslane (common purslane; 8 g ai/ha, preemergence): 0
- Purslane plant response rating (common purslane; 62 g ai/ha, Preemergence): 25
- Plant response rating, Purslane (common purslane; Preemergence, 16 g ai/ha): 15
- Plant response rating, Purslane (common purslane; Preemergence, 31 g ai/ha): 15
- Plant response rating, Groundsel (common groundsel; 8 g ai/ha, preemergence): 0
- Groundsel plant response rating (common groundsel; 62 g ai/ha, Preemergence): 0
- Plant response rating, Groundsel (common groundsel; Preemergence, 16 g ai/ha): 0
- Plant response rating, Groundsel (common groundsel; Preemergence, 31 g ai/ha): 0
- Plant response rating, Itchgrass (itchgrass; 8 g ai/ha, preemergence): 0
- Itchgrass plant response rating (itchgrass; 62 g ai/ha, Preemergence): 70
- Plant response rating, Itchgrass (itchgrass; Preemergence, 16 g ai/ha): 0
- Plant response rating, Itchgrass (itchgrass; Preemergence, 31 g ai/ha): 15
- Plant response rating, Quackgrass (quackgrass; 8 g ai/ha, preemergence): 0
- Quackgrass plant response rating (quackgrass; 62 g ai/ha, Preemergence): 60
- Plant response rating, Quackgrass (quackgrass; Preemergence, 16 g ai/ha): 0
- Plant response rating, Quackgrass (quackgrass; Preemergence, 31 g ai/ha): 0
- Plant response rating, Field Bindweed (field bindweed; 8 g ai/ha, preemergence): 0
- Field Bindweed plant response rating (field bindweed; 62 g ai/ha, Preemergence): 15
- Plant response rating, Field Bindweed (field bindweed; Preemergence, 16 g ai/ha): 0
- Plant response rating, Field Bindweed (field bindweed; Preemergence, 31 g ai/ha): 0
- Plant response rating, Mallow (common mallow; 8 g ai/ha, preemergence): 0
- Mallow plant response rating (common mallow; 62 g ai/ha, Preemergence): 60
- Plant response rating, Mallow (common mallow; Preemergence, 16 g ai/ha): 0
- Plant response rating, Mallow (common mallow; Preemergence, 31 g ai/ha): 25
